Changes are numbered by the printed parent chain.
How the values were obtained:
A3 W243F-YFP [1] = target: T1, A3 W243F-YFP (Homo sapiens, UniProt P0DMS8, W243F); assay: ERK1/2 phosphorylation assay (AlphaScreen SureFire), A3 W243F-YFP; format: cell-based
T1 construct: Full length A3 W243F-YFP was excised and subcloned into a native pcDNA3.1 vector; expressed in transfected cells
T1 sequence (P0DMS8 1-318 W243F): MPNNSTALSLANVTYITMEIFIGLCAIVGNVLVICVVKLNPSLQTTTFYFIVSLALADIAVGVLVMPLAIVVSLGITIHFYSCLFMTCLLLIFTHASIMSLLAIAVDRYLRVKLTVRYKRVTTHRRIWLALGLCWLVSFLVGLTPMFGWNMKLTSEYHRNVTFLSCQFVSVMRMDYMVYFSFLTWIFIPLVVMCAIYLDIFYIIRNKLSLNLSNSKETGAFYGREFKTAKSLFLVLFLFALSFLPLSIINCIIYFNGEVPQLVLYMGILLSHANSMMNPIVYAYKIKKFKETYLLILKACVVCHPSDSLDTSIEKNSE
Experimental: Normal growth medium was replaced with serum-free medium for at least 4 h before analysis. Levels of ERK1/2 phosphorylation were measured using the AlphaScreen SureFire p-ERK assay kit (PerkinElmer). […] Medium was removed from each well and replaced with 40 μL SureFire lysis buffer. After shaking for 5 min, a 1:80:20:120 v v^−1 dilution of AlphaScreen beads : lysate : activation buffer : reaction buffer in a 5.5 μL total volume was transferred to a white opaque 384-well proxiplate in diminished light. After 2 h of incubation in the dark at room temperature, the fluorescence signal was measured with an EnVision plate reader (PerkinElmer) using standard AlphaScreen settings.
A basal and FSK control was included in each separate concentration-response CRE-SPAP gene transcription assay and cAMP accumulation assay to allow the responses in each cell line to be expressed as an inhibition of FSK-stimulated SPAP production.

A3 W243F-YFP [2] = target: T1, A3 W243F-YFP; assay: Fluorescence-based competition binding assay with CA200645, A3 W243F-YFP; details: A3 W243F-YFP cells, 25 nM CA200645, 60 min, 37°C
Experimental: (§1) On the day of analysis, normal growth medium was removed and cells washed once with HBSS pre-warmed to 37°C. […] Buffer was then removed from each well, cells washed once in HBSS and fresh HBSS added at room temperature. Plates were immediately imaged using an ImageXpress Ultra confocal plate reader, which captured four central images per well using a Plan Fluor 40× NA0.6 extra-long working distance objective. CA200645 was excited at 635 nm and emission collected through a 640–685 nm band pass filter. Total image intensity was obtained using a multiwave length cell scoring algorithm within MetaXpress software (Molecular Devices).
(§2) Time course experiments were fitted using a one phase association equation which is as follows [drawing 2] where Yo represents the level of internalization at time (t) equal to zero, Plateau is the maximal internalization at infinite time and K is the rate constant in […]. Statistical significance was determined by Student's unpaired t-test or by one-way ANOVA with Dunnett's post hoc analysis and P < 0.05 was considered statistically significant.

A3-YFP = target: T2, A3-YFP (Homo sapiens, UniProt P0DMS8); assay: Fluorescence-based competition binding assay with CA200645, A3-YFP; details: A3-YFP cells, 25 nM CA200645, 60 min, 37°C
T2 construct: cDNA encoding the full length human A3 receptor; expressed in transfected cells
T2 sequence (P0DMS8 1-318): T1 sequence (P0DMS8 1-318 W243F) with F243W
Experimental: as §1, §2

EC50 (A3 W243F-YFP [1]; A3 W243F-YFP cells, 5 min stimulation, read-out: pEC50 (pERK1/2 assay) (converted)): 19.5 nM
Emax (A3 W243F-YFP [1]; read-out: Maximum response (% 10 μM NECA), pERK1/2 assay): 16 ± 3.1%
Ki (A3 W243F-YFP [2]): 45.7 nM
Ki (A3-YFP): 33.1 nM
SMILES: CCCCC#Cc1nc(NC)c2ncn([C@@H]3O[C@H](CO)[C@@H](O)[C@H]3O)c2n1 [HEMADO, 2-(1-hexynyl)-N-methyladenosine]
